Test results: the NIST ThermoML archive (doi:10.1021/acs.jced.8b00488)
Numbers after ± are expanded uncertainties.

Details: Liquid, Ebulliometric method (Recirculating still)

Compound | vapor or sublimation pressure (329.33 K) [kPa] | vapor or sublimation pressure (374.12 K) [kPa]
CC(C)=O [acetone] | 101.3 ± 0.8 | –
C[Si](C)(C)O[Si](C)(C)C [hexamethyldisiloxane] | – | 101.3 ± 0.8
